Data on one substance can be found in paper PMC12856317, “A reversible feedback mechanism regulating mitochondrial heme synthesis” (The Journal of Biological Chemistry, 2025).

Usually Kd stands for the equilibrium constant for the complex coming apart. A lower Kd goes with tighter binding.

Assay in all cases: Isothermal titration calorimetry, hemin-protein interaction
Common to all, as to type: binding
Holding throughout (conditions): ITC, 25 °C
On the technique in general: ITC needs no label: the signal is the heat of the interaction.

The target of assay [1] is T1, WT human ALAS2 (residues 54–587) (Homo sapiens, UniProt P22557).
T1 construct: His6-SUMO (N, cleaved yes); made in house; host or cells: Escherichia coli BL21-Codon Plus (DE3)-RIL
T1 sequence (P22557 54-587): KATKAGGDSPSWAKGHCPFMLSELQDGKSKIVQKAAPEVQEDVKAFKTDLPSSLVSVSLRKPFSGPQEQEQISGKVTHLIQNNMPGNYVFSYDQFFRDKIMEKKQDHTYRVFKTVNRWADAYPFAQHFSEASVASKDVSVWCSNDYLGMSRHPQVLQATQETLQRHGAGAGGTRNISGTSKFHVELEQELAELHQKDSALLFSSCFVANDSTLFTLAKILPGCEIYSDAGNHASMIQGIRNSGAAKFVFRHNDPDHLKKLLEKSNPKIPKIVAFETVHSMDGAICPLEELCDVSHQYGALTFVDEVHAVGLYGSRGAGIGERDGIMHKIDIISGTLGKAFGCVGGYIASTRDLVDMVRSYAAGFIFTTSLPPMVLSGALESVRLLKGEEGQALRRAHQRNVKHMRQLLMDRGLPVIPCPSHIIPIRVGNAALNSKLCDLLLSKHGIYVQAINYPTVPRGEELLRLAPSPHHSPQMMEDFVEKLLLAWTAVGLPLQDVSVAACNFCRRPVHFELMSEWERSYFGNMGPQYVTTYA
How it is done:
(§1) Binding curves of the hemin-protein interaction were determined using Nano-ITC instrument (TA instruments) at 25 °C. Hemin was dissolved in 1 M NaOH and autoclaved to prepare a stock solution of 746 μM, ε385nm = 58,440 M^−1 cm^−1. The stock solution was diluted to 1.5 μM in titration buffer containing 25 mM Hepes, pH 7, 150 mM KCl, and 0.5 mM TCEP. Protein samples were dialyzed into the titration buffer and diluted to a final concentration of 40 μM. Fixed volumes of protein were injected at 200-s intervals into the cell containing hemin. An A + B hetero-association model was used to determine the thermodynamic parameters for each variant. Data were integrated and analyzed using NITPIC and SEDPHAT and visualized using GUSSI ([71], [72], [73]).

The target of assay [2] is T2, human ALAS2 ΔC (residues 54–547) (Homo sapiens, UniProt P22557).
T2 construct: a truncation without the C-terminal CXXC motif (ΔC, residues 54–547); His6-SUMO (N, cleaved yes); made in house; host or cells: Escherichia coli BL21-Codon Plus (DE3)-RIL
T2 sequence (P22557 54-547): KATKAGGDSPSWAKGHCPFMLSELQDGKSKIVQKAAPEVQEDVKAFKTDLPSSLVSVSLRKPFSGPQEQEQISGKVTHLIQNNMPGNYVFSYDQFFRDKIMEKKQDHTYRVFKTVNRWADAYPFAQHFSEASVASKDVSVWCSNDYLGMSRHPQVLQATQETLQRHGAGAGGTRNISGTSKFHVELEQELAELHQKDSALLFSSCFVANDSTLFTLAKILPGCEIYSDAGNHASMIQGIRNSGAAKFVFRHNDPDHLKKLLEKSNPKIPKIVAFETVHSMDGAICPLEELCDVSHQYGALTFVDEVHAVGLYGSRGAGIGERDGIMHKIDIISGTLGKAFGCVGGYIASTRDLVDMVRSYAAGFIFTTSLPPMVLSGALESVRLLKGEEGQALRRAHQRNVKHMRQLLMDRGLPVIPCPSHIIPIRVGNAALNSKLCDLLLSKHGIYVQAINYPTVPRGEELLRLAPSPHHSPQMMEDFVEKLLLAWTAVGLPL
How it is done:
as §1

Assay [3] addresses T3, human ALAS2 ΔN (residues 75–587) (Homo sapiens, UniProt P22557).
T3 construct: a truncation without HRM3 (ΔN, residues 75–587); His6-SUMO (N, cleaved yes); made in house; host or cells: Escherichia coli BL21-Codon Plus (DE3)-RIL
T3 sequence (P22557 75-587): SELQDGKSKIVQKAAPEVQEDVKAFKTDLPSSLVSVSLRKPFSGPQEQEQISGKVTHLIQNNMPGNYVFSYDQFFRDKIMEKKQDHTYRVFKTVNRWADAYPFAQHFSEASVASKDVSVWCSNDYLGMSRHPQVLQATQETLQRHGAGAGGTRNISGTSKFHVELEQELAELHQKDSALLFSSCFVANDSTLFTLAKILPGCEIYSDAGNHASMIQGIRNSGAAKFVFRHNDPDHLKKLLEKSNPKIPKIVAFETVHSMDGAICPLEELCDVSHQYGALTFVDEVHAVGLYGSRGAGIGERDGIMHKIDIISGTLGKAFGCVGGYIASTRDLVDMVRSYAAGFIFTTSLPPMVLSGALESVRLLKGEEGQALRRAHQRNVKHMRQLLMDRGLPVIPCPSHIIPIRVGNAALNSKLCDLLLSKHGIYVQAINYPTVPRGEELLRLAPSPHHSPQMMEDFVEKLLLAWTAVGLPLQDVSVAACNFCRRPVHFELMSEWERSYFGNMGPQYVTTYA
As for the experimental part:
as §1

[4] abbreviates: 95% confidence interval in brackets.

In the case of ferric chloride heme [hemin], the values for the ΔG in assay [1], in assay [2] and in assay [3] were -9.05 kcal/mol, -8.94 kcal/mol and -8.50 kcal/mol, respectively. The ΔS in assay [1] was −1.25 kcal/mol K; in assay [2], −1.80 kcal/mol K; in assay [3] it was −3.35 kcal/mol K. Also, the Kd in assay [1] (setting [4]) is 232 nM; in assay [1] (95% confidence interval in brackets, listed as heme) it was about 230 nM; in assay [2] (setting [4]), 279 nM; in assay [3] (setting [4]), 589 nM. In addition, the ΔH in assay [1] (setting [4]) was −382 [−440, −342] kcal/mol; in assay [2] (setting [4]), −544 [−604, −499] kcal/mol; in assay [3] (setting [4]), −1006 [−1432, −810] kcal/mol.
